The values below come from patent US12404242B2, “Compositions and methods for making and using small molecules in the treatment of cancer” (Reglagene, Inc., priority 2021, dated 2025).

Converted amounts (≈) assume the structure as drawn. Where two headings read alike, the source gives them in different places.

The test system of one data set is LNCaP cells. Put plainly: Cell viability (AlamarBlue), LNCaP prostate cancer cells. In kind it is cell-based, human. To be noted: 72 hours of treatment. In a few lines:
(§1)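 Viability is read by AlamarBlue fluorescence after cells, seeded 24 hours earlier, are treated for 72 hours with a concentration series of compound. Signals are expressed relative to no-treatment controls before EC50 fitting.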
A general note: Resazurin is reduced to fluorescent resorufin, in cell work by metabolically active cells.

The test system of a further data set is 22RV1 cells. Put plainly: Cell viability (AlamarBlue), 22RV1 prostate cancer cells. In kind it is cell-based, human. Particulars: 72 hours of treatment. The method in brief: as §1
For another data set, the system named is U87 cells. In words: Cell viability (AlamarBlue), U87 glioblastoma cells. The data set is classed as cell-based, human. The arrangement: key to EC50 (μM) in U87 cells: Inactive: less than 50% inhibition at the highest concentration tested at 50 μM. Particulars: 72 hours of treatment. In a few lines:
as §1

The test system of another data set is MCF7 cells. In words: Cell viability (AlamarBlue), MCF7 breast cancer cells. The data set is classed as cell-based. To be noted: Homo sapiens, 72 hours of treatment. The procedure:
(§2) In another exemplary method, half maximal effective concentration (EC50) was determined for some compounds and their isomers as disclosed herein in a variety of human cancer cell lines. In brief, cells from two prostate cancer cell lines (LNCaP, 22RV1), one glioblastoma cell line (U87), one breast cancer cell line (MCF7), a glioma cell line (LN18), a normal prostate cell line (RWPE1), and a glioblastoma cell line (T98G) were plated in a multi-well plate. After 24 hours, one of the compounds herein was added to the well at increasing concentrations. After 72 hours of treatment, cell viability was assessed using AlamrBlue® (Invitrogen) and fluorescence was read using the CLARIOstar Plus Multilabel Plate Reader (BMG Labtech). Samples were normalized to no treatment controls. EC50 values were determined using GraphPad Prism.

The subject of the next data set is RWPE1 cells. Put plainly: Cell viability (AlamarBlue), RWPE1 normal prostate cells. The data set is classed as cell-based, human. Also noted: key to EC50 (μM) in RWPE1 cells: Inactive: less than 50% inhibition at the highest concentration tested at 50 μM. To be noted: normal prostate cell line; for EC50 (μM) in RWPE1 cells: 72 hours of treatment. How it is done:
as §2

The nature of data set [1]: Kinetic solubility in aqueous PBS buffer (HPLC-MS). The data set is classed as physicochemical. To be noted: kinetic from dmso stock. In a few lines:
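A concentrated DMSO stock was mixed with aqueous PBS buffer and filtered. The filtrate was quantified against an HPLC-MS calibration curve.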

A further data set has as its system cancer cell. Put plainly: Cancer cell viability, cell line not stated (per-compound ranges in description). The data set is classed as cell-based. Particulars: 'In some embodiments', values worded 'about', read-out: EC50 in cancer cell viability (range stated in description). How it is done:
as §2

Setting [2] is: DMSO stock mixed with aqueous PBS buffer, filtered, read-out: Kinetic Solubility.
Where [3] appears, read: 'In some embodiments', values worded 'about', read-out: kinetic solubility (range stated in description).

Turning to `COC1CC(C(=O)NC(=O)Nc2ccc(Oc3ccc(F)cn3)c(C)c2)C1` (single isomer, unassigned) [Compound 15A, N-((4-((5-fluoropyridin-2-yl)oxy)-3-methylphenyl)carbamoyl)-3-methoxycyclobutanecarboxamide], the EC50 in the data set on LNCaP cells stood at 1.6 µM; in the data set with 22RV1 cells it was 4.1 µM; in the data set with U87 cells, 5.5 µM; with MCF7 cells it was 11.5 µM. For the same molecule, the “EC50 (μM) in RWPE1 cells” value in the data set on RWPE1 cells is listed as “Inactive”.

Turning to `COC1CC(C(=O)NC(=O)Nc2ccc(Oc3ccc(C#N)cn3)c(C)c2)C1` (single isomer, unassigned) [Compound 16A, N-((4-((5-cyanopyridin-2-yl)oxy)-3-methylphenyl)carbamoyl)-3-methoxycyclobutane-1-carboxamide], the EC50 was 2.9 µM in the data set on LNCaP cells (Homo sapiens, LNCaP, 72 h); 5.8 µM with 22RV1 cells; 10 µM in the data set with U87 cells; 12.7 µM with MCF7 cells. Besides, the “EC50 (μM) in RWPE1 cells” value in the data set with RWPE1 cells is “Inactive”.

Take `COC1CC(C(=O)NC(=O)Nc2ccc(Oc3ncc(Cl)cn3)c(C)c2)C1` (single isomer, unassigned) [Compound 20A, N-((4-((5-chloropyrimidin-2-yl)oxy)-3-methylphenyl)carbamoyl)-3-methoxycyclobutane-1-carboxamide]: the EC50 in the data set with LNCaP cells turned out to be 0.87 µM; in the data set on 22RV1 cells, 1.5 µM; in the data set with U87 cells, 2.6 µM; with MCF7 cells, 5.8 µM. The “EC50 (μM) in RWPE1 cells” value in the data set with RWPE1 cells was “Inactive”.

With `COC1CCC(C(=O)NC(=O)Nc2ccc(Oc3ncc(Cl)cn3)c(C)c2)CC1` (stereo not shown) [Compound 1, N-((4-((5-chloropyrimidin-2-yl)oxy)-3-methylphenyl)carbamoyl)-4-methoxycyclohexane-1-carboxamide], the EC50 with LNCaP cells (Homo sapiens, LNCaP, 72 h) came out at 2.4 µM; in the data set on 22RV1 cells (Homo sapiens, 22Rv1, 72 h), 3.7 µM; in the data set on U87 cells (Homo sapiens, U-87 MG, 72 h) it was 6 µM; in the data set on MCF7 cells, 3.4 µM. For the same molecule, the “EC50 (μM) in RWPE1 cells” value in the data set with RWPE1 cells is “Inactive”. The kinetic solubility in data set [1] (setting [2]) was 4.9 µM (≈ 2.05 µg/mL).

Regarding `Cc1cc(NC(=O)NC(=O)C2COC2)ccc1Oc1ncc(Cl)cn1` [Compound 2, 1-{4-[(5-chloropyrimidin-2-yl)oxy]-3-methylphenyl}-3-(oxetane-3-carbonyl)urea], the EC50 in the data set on LNCaP cells (Homo sapiens, LNCaP, 72 h) was 19 µM; in the data set on 22RV1 cells (Homo sapiens, 22Rv1, 72 h), 41 µM; in the data set on MCF7 cells, 20.9 µM.

Consider `COC1CCC(C(=O)NC(=O)Nc2ccc(Oc3ccc(Cl)cn3)c(C)c2)CC1` (stereo not shown) [Compound 7, N-((4-((5-chloropyridin-2-yl)oxy)-3-methylphenyl)carbamoyl)-4-methoxycyclohexane-1-carboxamide], for which the EC50 with LNCaP cells (Homo sapiens, LNCaP, 72 h) turned out to be 2.8 µM; in the data set with 22RV1 cells (Homo sapiens, 22Rv1, 72 h), 2.9 µM; in the data set with U87 cells (Homo sapiens, U-87 MG, 72 h) it was 4.4 µM; in the data set on MCF7 cells, 2.4 µM. The “EC50 (μM) in RWPE1 cells” value with RWPE1 cells is reported as “Inactive”. Also, the solubility (kinetic) in data set [1] (setting [2]) came to 0.49 µM (≈ 0.205 µg/mL).

For `COC1CCC(C(=O)NC(=O)Nc2ccc(Oc3ncc(F)cn3)c(C)c2)CC1` (stereo not shown) [Compound 8, 3-{4-[(5-fluoropyrimidin-2-yl)oxy]-3-methylphenyl}-1-(4-methoxycyclohexanecarbonyl)urea], the EC50 was 27.5 µM with LNCaP cells (Homo sapiens, LNCaP, 72 h); 26 µM in the data set with 22RV1 cells (Homo sapiens, 22Rv1, 72 h); 36 µM in the data set with U87 cells (Homo sapiens, U-87 MG, 72 h); 24.3 µM in the data set with MCF7 cells. In the data set with RWPE1 cells, the “EC50 (μM) in RWPE1 cells” value is “Inactive”.

As to `COC1CCC(C(=O)NC(=O)Nc2ccc(Oc3ccc(F)cn3)c(C)c2)CC1` (stereo not shown) [Compound 9, 3-{4-[(5-fluoropyridin-2-yl)oxy]-3-methylphenyl}-1-(4-methoxycyclohexanecarbonyl)urea], the EC50 in the data set on LNCaP cells (Homo sapiens, LNCaP, 72 h) amounted to 11.5 µM; with 22RV1 cells (Homo sapiens, 22Rv1, 72 h), 5.1 µM; with U87 cells (Homo sapiens, U-87 MG, 72 h) it was 4.9 µM; in the data set on MCF7 cells, 8.5 µM. In addition, the “EC50 (μM) in RWPE1 cells” value with RWPE1 cells was “Inactive”.

As to `COC1CCC(C(=O)NC(=O)Nc2ccc(Oc3ncccn3)c(C)c2)CC1` (stereo not shown) [Compound 10, 1-(4-methoxycyclohexanecarbonyl)-3-[3-methyl-4-(pyrimidin-2-yloxy)phenyl]urea], the EC50 was determined as 13 µM in the data set with LNCaP cells (Homo sapiens, LNCaP, 72 h); 12.5 µM in the data set with 22RV1 cells (Homo sapiens, 22Rv1, 72 h); 33.5 µM in the data set with U87 cells (Homo sapiens, U-87 MG, 72 h); 12.9 µM with MCF7 cells. The “EC50 (μM) in RWPE1 cells” value in the data set with RWPE1 cells is reported as “Inactive”.

For `COC1CCC(C(=O)NC(=O)Nc2ccc(Oc3ccc(Cl)cn3)c(F)c2)CC1` (stereo not shown) [Compound 12, N-((4-((5-chloropyridin-2-yl)oxy)-3-fluorophenyl)carbamoyl)-4-methoxycyclohexane-1-carboxamide], the concentration giving a half-maximal response (EC50) in the data set on LNCaP cells (Homo sapiens, LNCaP, 72 h) stood at 3.1 µM; with 22RV1 cells (Homo sapiens, 22Rv1, 72 h) it was 1.9 µM; in the data set with U87 cells (Homo sapiens, U-87 MG, 72 h), 1.9 µM; in the data set with MCF7 cells it was 1.9 µM; in the data set on RWPE1 cells (Homo sapiens, RWPE-1, 72 hours of treatment) it was 6.1 µM. Also, the kinetic solubility in data set [1] (setting [2]) amounted to 0.28 µM (≈ 0.118 µg/mL).

In the case of `COC1CCC(C(=O)NC(=O)Nc2ccc(Oc3ncccn3)c(F)c2)CC1` (stereo not shown) [Compound 13, 3-[3-fluoro-4-(pyrimidin-2-yloxy)phenyl]-1-(4-methoxycyclohexanecarbonyl)urea], the EC50 with LNCaP cells (Homo sapiens, LNCaP, 72 h) came out at 17.4 µM; in the data set on 22RV1 cells (Homo sapiens, 22Rv1, 72 h), 14.1 µM; in the data set on MCF7 cells, 11.3 µM.

Regarding `COC1CC(C(=O)NC(=O)Nc2ccc(Oc3cnc(N4CCOCC4)nc3)c(C)c2)C1` (stereo not shown) [Compound 44, 3-methoxy-N-((3-methyl-4-((2-morpholinopyrimidin-5-yl)oxy)phenyl)carbamoyl)cyclobutane-1-carboxamide], the EC50 in the data set with LNCaP cells (Homo sapiens, LNCaP, 72 h) amounted to 6.3 µM; in the data set with 22RV1 cells (Homo sapiens, 22Rv1, 72 h), 17.8 µM; in the data set on U87 cells (Homo sapiens, U-87 MG, 72 h) it was 22 µM; in the data set with MCF7 cells, 2.5 µM. For the same molecule, the solubility (kinetic) in data set [1] (setting [2]) came to 0.95 µM (≈ 0.419 µg/mL).

With `COC1CC(C(=O)NC(=O)Nc2ccc(Oc3ncc(C)s3)c(C)c2)C1` (stereo not shown) [Compound 60, 3-methoxy-N-((3-methyl-4-((5-methylthiazol-2-yl)oxy)phenyl)carbamoyl)cyclobutane-1-carboxamide], the EC50 is 0.88 µM with LNCaP cells (Homo sapiens, LNCaP, 72 h); 1.2 µM with 22RV1 cells (Homo sapiens, 22Rv1, 72 h); 0.32 µM with U87 cells (Homo sapiens, U-87 MG, 72 h); 0.6 µM in the data set on MCF7 cells.

As to `Cc1cc(NC(=O)NC(=O)C2CCCCC2)ccc1Oc1ncc(Cl)cn1` [Compound 71, N-((4-((5-chloropyrimidin-2-yl)oxy)-3-methylphenyl)carbamoyl)cyclohexanecarboxamide], the EC50 in the data set with LNCaP cells (Homo sapiens, LNCaP, 72 h) was 10.4 µM; in the data set with 22RV1 cells (Homo sapiens, 22Rv1, 72 h), 12.5 µM; with MCF7 cells it was 9.4 µM. The “EC50 (μM) in U87 cells” value with U87 cells was “Inactive”. Further, the “EC50 (μM) in RWPE1 cells” value with RWPE1 cells was “Inactive”.

With `COC1CC(C(=O)NC(=O)Nc2ccc(C)c(Oc3ccccn3)c2)C1` (stereo not shown) [drawing 280, 3-methoxy-N-((4-methyl-3-(pyridin-2-yloxy)phenyl)carbamoyl)cyclobutane-1-carboxamide], the kinetic solubility in data set [1] (setting [3]) was 10 to 14 µM (≈ 3.55 to 4.98 µg/mL). In addition, the EC50 with cancer cell was in the range of 0.002 to 0.007 µM.

For `COC1CC(C(=O)NC(=O)Nc2ccc(C)c(Oc3ccc(F)cn3)c2)C1` (stereo not shown) [drawing 281, N-((3-((5-fluoropyridin-2-yl)oxy)-4-methylphenyl)carbamoyl)-3-methoxycyclobutane-1-carboxamide], the solubility (kinetic) in data set [1] (setting [3]) was in the range of 5 to 9 µM (≈ 1.87 to 3.36 µg/mL). Further, the EC50 in the data set on cancer cell fell in the range of 0.005 to 0.03 µM.

In the case of `COC1CC(C(=O)NC(=O)Nc2ccc(C)c(Oc3ncccn3)c2)C1` (stereo not shown) [drawing 282, 3-methoxy-N-((4-methyl-3-(pyrimidin-2-yloxy)phenyl)carbamoyl)cyclobutane-1-carboxamide], the kinetic solubility in data set [1] (setting [3]) fell in the range of 13 to 17 µM (≈ 4.63 to 6.06 µg/mL). In the data set with cancer cell, the EC50 lay within 0.02 to 0.06 µM.

As for `COC12CC(C(=O)NC(=O)Nc3ccc(C)c(Oc4ncccn4)c3)(C1)C2` [drawing 283, 3-methoxy-N-((4-methyl-3-(pyrimidin-2-yloxy)phenyl)carbamoyl)bicyclo[1.1.1]pentane-1-carboxamide], the solubility (kinetic) in data set [1] (setting [3]) lay within 4 to 8 µM (≈ 1.47 to 2.95 µg/mL). Also, the EC50 with cancer cell lay in the range of 0.011 to 0.02 µM.

In general, EC50 refers to the concentration needed to bring the measured effect to its halfway point. What is called kinetic solubility is solubility judged after dilution from a stock solution rather than from solid.
